{"source": "patent US8492589B2", "about": "“Alkynyl phenyl derivative compounds for treating ophthalmic diseases and disorders” (Acucela Inc., priority 2007, dated 2013)"}
{"molecular_target": "T1, visual cycle isomerase (Bovine RPE microsome membranes) (Bos taurus, UniProt Q28175)", "T1 construct": "Bovine Retinal Pigment Epithelium (RPE) microsome membranes were the source of a visual cycle isomerase; from tissue; host or cells: bovine retinal pigment epithelium microsome membranes", "T1 sequence (Q28175 2-533 limits assumed)": "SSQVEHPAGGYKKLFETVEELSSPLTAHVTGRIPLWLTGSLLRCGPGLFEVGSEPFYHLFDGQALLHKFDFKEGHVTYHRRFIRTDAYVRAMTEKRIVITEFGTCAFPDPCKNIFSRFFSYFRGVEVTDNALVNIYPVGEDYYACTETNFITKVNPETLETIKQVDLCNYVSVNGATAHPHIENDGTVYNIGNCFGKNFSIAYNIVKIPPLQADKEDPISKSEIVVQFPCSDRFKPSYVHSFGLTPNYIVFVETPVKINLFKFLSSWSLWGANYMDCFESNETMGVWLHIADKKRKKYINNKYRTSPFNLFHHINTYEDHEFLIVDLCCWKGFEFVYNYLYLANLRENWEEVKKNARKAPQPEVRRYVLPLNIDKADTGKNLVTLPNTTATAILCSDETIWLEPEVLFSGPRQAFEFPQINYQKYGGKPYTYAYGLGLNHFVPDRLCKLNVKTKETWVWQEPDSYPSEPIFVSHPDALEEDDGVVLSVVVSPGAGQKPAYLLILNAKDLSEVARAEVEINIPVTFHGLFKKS", "test": "In vitro isomerase inhibition assay, bovine RPE microsome membranes", "assay_type": "biochemical", "settings": "bovine RPE microsomes; 11-cis retinol formation", "method": "The capability of alkynyl phenyl-linked amine derivative compounds to inhibit the activity of a visual cycle isomerase was determined.\nBovine Retinal Pigment Epithelium (RPE) microsome membranes were the source of a visual cycle isomerase.\nCrude RPE microsome extracts were thawed in a 37° C. water bath, and then immediately placed on ice. 50 ml crude RPE microsomes were placed into a 50 ml Teflon-glass homogenizer (Fisher Scientific, catalog no. 0841416M) on ice, powered by a hand-held DeWalt drill, and homogenized ten times up and down on ice under maximum speed. This process was repeated until the crude RPE microsome solution was homogenized. The homogenate was then subjected to centrifugation (50.2 Ti rotor (Beckman, Fullerton, Calif.), 13,000 RPM; 15360 Rcf) for 15 minutes at 4° C. The supernatant was collected and subjected to centrifugation at 42,000 RPM (160,000 Rcf; 50.2 Ti rotor) for 1 hour at 4° C. The supernatant was removed, and the pellets were suspended in 12 ml (final volume) cold 10 mM MOPS buffer, pH 7.0. The resuspended RPE membranes in 5 ml aliquots were homogenized in a glass-to-glass homogenizer (Fisher Scientific, catalog no. K885500-0021) to high homogeneity. Protein concentration was quantified using the BCA protein assay according to the manufacturer's protocol (Pierce, Rockford, Ill.). The homogenized RPE preparations were stored at −80° C.\nRecombinant human apo cellular retinaldehyde-binding protein (CRALBP) was cloned and expressed according to standard methods in the molecular biology art (see Crabb et al., Protein Science 7:746-57 (1998); Crabb et al., J. Biol. Chem. 263:18688-92 (1988)). Briefly, total RNA was prepared from confluent ARPE19 cells (American Type Culture Collection, Manassas, Va.), cDNA was synthesized using an oligo(dT)12-18 primer, and then DNA encoding CRALBP was amplified by two sequential polymerase chain reactions (see Crabb et al., J. Biol. Chem. 263:18688-92 (1988); Intres, et al., J. Biol. Chem. 269:25411-18 (1994); GenBank Accession No. L34219.1). The PCR product was sub-cloned into pTrcHis2-TOPO TA vector according to the manufacturer's protocol (Invitrogen Inc., Carlsbad, Calif.; catalog no. K4400-01), and then the sequence was confirmed according to standard nucleotide sequencing techniques. Recombinant 6×His-tagged human CRALBP was expressed in One Shot TOP 10 chemically competent E. coli cells (Invitrogen), and the recombinant polypeptide was isolated from E. coli cell lysates by nickel affinity chromatography using nickel (Ni) Sepharose XK16-20 columns for HPLC (Amersham Bioscience, Pittsburgh, Pa.; catalog no. 17-5268-02). The purified 6×His-tagged human CRALBP was dialyzed against 10 mM bis-tris-Propane (BTP) and analyzed by SDS-PAGE. The molecular weight of the recombinant human CRALBP was approximately 39 kDal.\nAlkkynyl phenyl-linked amine derivative compounds and control compounds were reconstituted in ethanol to 0.1 M. Ten-fold serial dilutions (10^−2, 10^−3, 10^−4, 10^−5, 10^−6 M) in ethanol of each compound were prepared for analysis in the isomerase assay.\nThe isomerase assay was performed in 10 mM bis-tris-propane (BTP) buffer, pH 7.5, 0.5% BSA (diluted in BTP buffer), 1 mM sodium pyrophosphate, 20 μM all-trans retinol (in ethanol), and 6 μM apo-CRALBP. The test compounds (2 μl) (final […] dilution of serial dilution stocks) were added to the above reaction mixture to which RPE microsomes were added. The same volume of ethanol was added to the control reaction (absence of test compound). Bovine RPE microsomes (9 μl) (see above) were then added, and the mixtures transferred to 37° C. to initiate the reaction (total volume=150 μl). The reactions were stopped after 30 minutes by adding methanol (300 μl). Heptane was added (300 μl) and mixed into the reaction mixture by pipetting. Retinoid was extracted by agitating the reaction mixtures, followed by centrifugation in a microcentrifuge. […]", "units": {"IC50": "µM"}}
{"smiles": "CCCC(O)(C#Cc1cccc(CC(C)(C)CN)c1)CCC", "note": "[Example 20, 4-((3-(3-Amino-2,2-dimethylpropyl)phenyl)ethynyl)heptan-4-ol]", "IC50": "≤ 100"}
{"smiles": "CC1(C)CCCC(C)(C)C1(O)C#Cc1cccc(CCCN)c1", "note": "[Example 13, 1-((3-(3-Aminopropyl)phenyl)ethynyl)-2,2,6,6-tetramethylcyclohexanol]", "IC50": "≤ 10"}
{"smiles": "CC(C)(O)C#Cc1cccc(OCCN)c1", "note": "[Example 30, 4-(3-(2-Aminoethoxy)phenyl)-2-methylbut-3-yn-2-ol]", "IC50": "≤ 1"}
{"smiles": "NCCCc1cccc(C#Cc2ccc3ccccc3c2)c1", "note": "[Example 45, 3-(3-(Naphthalen-2-ylethynyl)phenyl)propan-1-amine]", "IC50": "≤ 1000"}
{"smiles": "CC(C)CC#Cc1cccc(OCCN)c1", "note": "[Example 73, 2-(3-(4-Methylpent-1-ynyl)phenoxy)ethanamine]", "IC50": "≤ 1"}
{"smiles": "CC(C)(C)C(O)(C#Cc1cccc(CCCN)c1)C(C)(C)C", "note": "[Example 12, 1-(3-(3-Aminopropyl)phenyl)-3-tert-butyl-4,4-dimethylpent-1-yn-3-ol]", "IC50": "≤ 10"}
{"smiles": "Cc1cccc(C#Cc2cccc(CCCN)c2)c1", "note": "[Example 87, 3-(3-(m-Tolylethynyl)phenyl)propan-1-amine]", "IC50": "≤ 100"}
{"smiles": "NCCCc1cccc(C#Cc2cccc(C(F)(F)F)c2)c1", "note": "[Example 92, 3-(3-((3-(Trifluoromethyl)Phenyl)Ethynyl)Phenyl)Propan-1-Amine]", "IC50": "≤ 100"}
{"smiles": "NCCCc1cccc(C#Cc2cccc(-c3ccccc3)c2)c1", "note": "[Example 46, 3-(3-(Biphenyl-3-ylethynyl)phenyl)propan-1-amine]", "IC50": "≤ 100"}
{"smiles": "CCCCC#Cc1cccc(CCCN)c1", "note": "[Example 44, 3-(3-(Hex-1-ynyl)phenyl)propan-1-amine]", "IC50": "≤ 1"}
{"smiles": "NCCOc1cccc(C#Cc2ccsc2)c1", "note": "[Example 96, 2-(3-(Thiophen-3-ylethynyl)phenoxy)ethanamine]", "IC50": "≤ 10"}
{"smiles": "NCCCc1cccc(C#C[C@H](O)c2ccccc2)c1", "note": "[Example 16, (R)-3-(3-(3-Aminopropyl)phenyl)-1-phenylprop-2-ynol]", "IC50": "≤ 1"}
{"smiles": "NCCOc1cccc(C#CCC2CCCC2)c1", "note": "[Example 85, 2-(3-(3-Cyclopentylprop-1-ynyl)phenoxy)ethanamine]", "IC50": "≤ 1"}
{"smiles": "COCCCCC#Cc1cccc(CCCN)c1", "note": "[Example 67, 3-(3-(6-Methoxyhex-1-ynyl)phenyl)propan-1-amine]", "IC50": "≤ 1"}
{"smiles": "NCCOc1cccc(C#CCCO)c1", "note": "[Example 76, 4-(3-(2-Aminoethoxy)phenyl)but-3-yn-1-ol]", "IC50": "≤ 100"}
{"smiles": "NCCCc1cccc(C#CCc2ccccc2)c1", "note": "[Example 42, 3-(3-(3-Phenylprop-1-ynyl)phenyl)propan-1-amine]", "IC50": "≤ 1"}
{"smiles": "CCCC(C)(O)C#Cc1cccc(CCCN)c1", "note": "(stereo not drawn) [Example 5, 1-(3-(3-Aminopropyl)phenyl)-3-methylhex-1-yn-3-ol]", "IC50": "≤ 1"}
{"smiles": "CC(C)(C)C#Cc1cccc(CCCN)c1", "note": "[Example 40, 3-(3-(3,3-Dimethylbut-1-Ynyl)Phenyl)Propan-1-Amine]", "IC50": "≤ 10"}
{"smiles": "CCCCCC#Cc1cccc(CCCN)c1", "note": "[Example 102, 3-(3-(Hept-1-ynyl)phenyl)propan-1-amine]", "IC50": "≤ 1"}
{"smiles": "NCCC(O)c1cccc(C#CCC2CCCC2)c1", "note": "(stereo not drawn) [Example 48, 3-Amino-1-(3-(3-cyclopentylprop-1-ynyl)phenyl)propan-1-ol]", "IC50": "≤ 1"}
{"smiles": "NCCOc1cccc(C#CCCc2ccccc2)c1", "note": "[Example 86, 2-(3-(4-Phenylbut-1-ynyl)phenoxy)ethanamine]", "IC50": "≤ 1"}
{"smiles": "NCCCc1cccc(C#CCCc2ccccc2)c1", "note": "[Example 72, 3-(3-(4-Phenylbut-1-ynyl)phenyl)propan-1-amine]", "IC50": "≤ 1"}
{"system": "retinoid nuclear receptors (RAR and RXR)", "test": "Retinoid nuclear receptor activity, RAR and RXR together", "assay_type": "cell-based", "settings": "reference agonists"}
{"smiles": "CC1=C(/C=C/C(C)=C/C=C/C(C)=C/C(=O)O)C(C)(C)CCC1", "note": "[at-RA, all-trans-retinoic acid]", "activation of the RXRα, RARα, RARβ and RARγ receptors": "activated"}
{"smiles": "C/C(=C\\c1ccc(C(=O)O)cc1)c1ccc2c(c1)C(C)(C)CCC2(C)C", "note": "[TTNPB, E-4-[2-(5,6,7,8-tetrahydro-5,5,8,8-tetramethyl-2-naphthylenyl)-1-propenyl]benzoic acid]", "activation of the RXRα, RARα, RARβ and RARγ receptors": "activated"}
